Usually IC50 stands for the midpoint of a concentration-inhibition curve.

For this assay, the target named is Recombinant human LSD1 (Homo sapiens, UniProt O60341). As to the kind of experiment: LSD1 inhibition assay (HTRF LSD1 Histone H3K4 mono-demethylation assay, me1->me0). The assay is classed as biochemical. The settings on record: 20 nM recombinant human LSD1, 95 nM H3K4(me1) biotinylated peptide, 15 min preincubation, 60 min at 25° C., read-out: LSD1 inhibition IC50 (nM range). The method, boiled down: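 HTRF demethylation (me1->me0) read-out: streptavidin-XL665 and anti-H3K4me0 cryptate added after reaction, ratio measured after 90 min dark. Reaction: 95 nM H3K4me1 biotin-peptide, 20 nM LSD1 (15-min compound pre-incubation), 60 min, 25 °C, buffer pH 8.5 plus FAD and DTT; 4-parameter logistic IC50.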

With `N#Cc1ccc(-c2ccc(F)c(CN3[C@H]4CC[C@@H]3[C@H](N)C4)c2OC(F)F)cc1F` (single isomer, unassigned) [Example 169], the IC50 was 10 to 25 nM.

As to `CN[C@@H]1C[C@@H]2CC[C@H]1N2Cc1cccc(-c2ccc(C#N)cc2)c1-c1ccns1` (single isomer, unassigned) [Example 173], the IC50 is less than 10 nM.

Turning to `CN[C@@H]1C[C@@H]2CC[C@H]1N2Cc1cccc(-c2ccc(C#N)c(F)c2)c1C1CC1` (single isomer, unassigned) [Example 178], the IC50 lay within 10 to 25 nM.

In the case of `CN[C@H]1C[C@H]2CC[C@@H]1N2Cc1cccc(-c2ccc(C#N)cc2)c1-c1ccns1` (single isomer, unassigned) [Example 182], the IC50 is less than 10 nM.

For `N#Cc1ccc(-c2cccc(CN3[C@@H]4CC[C@H]3[C@@H](N)C4)c2OC(F)F)cc1F` (single isomer, unassigned) [Example 183], the IC50 was less than 10 nM.

In the case of `N#Cc1ccc(-c2cccc(CN3[C@H]4CC[C@@H]3[C@H](N)C4)c2C2CC2)cc1F` (single isomer, unassigned) [Example 186], the IC50 was 10 to 25 nM.

As for `N#Cc1ccc(-c2cccc(CN3[C@H]4CC[C@@H]3[C@H](N)C4)c2-c2ccns2)cc1` (single isomer, unassigned) [Example 187], the IC50 lay in the range of 10 to 25 nM.

Regarding `CN[C@@H]1C[C@@H]2CC[C@H]1N2Cc1cccc(-c2ccc(C#N)c(F)c2)c1-c1ccns1` (single isomer, unassigned) [Example 190], the IC50 is less than 10 nM.

In the case of `CC1(C)CN(Cc2cccc(-c3ccc(C#N)c(F)c3)c2-c2ccns2)C[C@H]1N` (single isomer, unassigned) [Example 194], the IC50 is less than 10 nM.

With `CC1(C)CN(Cc2cccc(-c3ccc(C#N)c(F)c3)c2-c2ccns2)C[C@@H]1N` (single isomer, unassigned) [Example 197], the concentration for half-maximal inhibition (IC50) is less than 10 nM.

Take `CCN[C@@H]1C[C@@H]2CC[C@H]1N2Cc1cccc(-c2ccc(C#N)c(F)c2)c1C1CC1` (single isomer, unassigned) [Example 201]: the IC50 lay within 10 to 25 nM.

On to `N#Cc1ccc(-c2cccc(CN3[C@@H]4CC[C@H]3[C@@H](N)C4)c2-c2ccns2)cc1` (single isomer, unassigned) [Example 204], for which the IC50 lay within 10 to 25 nM.

As for `CCCc1c(CN2[C@H]3CC[C@@H]2[C@H](N)C3)cccc1-c1ccc(C#N)c(F)c1` (single isomer, unassigned) [Example 212], the IC50 is 25 to 100 nM.

`N#Cc1ccc(-c2cccc(CN3[C@H]4CC[C@@H]3[C@H](N)C4)c2CC2CC2)cc1F` (single isomer, unassigned) [Example 221]: the IC50 is 25 to 100 nM.

As to `N#Cc1ccc(-c2cc(F)cc(CN3[C@H]4CC[C@@H]3[C@H](N)C4)c2C2CC2)cc1F` (single isomer, unassigned) [Example 223], the IC50 was 10 to 25 nM.

Turning to `CC(C)N[C@@H]1C[C@@H]2CC[C@H]1N2Cc1cccc(-c2ccc(C#N)c(F)c2)c1C1CC1` (single isomer, unassigned) [Example 248], the IC50 is 100 to 1000 nM.

For the compound `N#Cc1ccc(-c2cccc(CN3[C@@H]4CC[C@H]3[C@@H](N)C4)c2C2CC2)cc1F` (single isomer, unassigned) [Example 261], the half-inhibitory concentration (IC50) lay within 100 to 1000 nM.

`N#Cc1ccc(-c2cccc(CC3CNCCO3)c2-c2ocnc2F)cc1` (stereo in doubt) [Example 2, 2′-(4-fluoro-1,3-oxazol-5-yl)-3′-{[(2R)-morpholin-2-yl]methyl}-[1,1′-biphenyl]-4-carbonitrile]: the IC50 lay in the range of 10 to 25 nM.

On to `CN1C[C@@H]2C[C@H]1CN2Cc1cc(-c2ccc(C#N)c(F)c2)cc(N2CCCC2)c1` (stereo in doubt) [Example 300, 2-fluoro-4-[3-[[(1S,4S)-5-methyl-2,5-diazabicyclo[2.2.1]heptan-2-yl]methyl]-5-pyrrolidin-1-yl-phenyl]benzonitrile], for which the IC50 lay within 100 to 1000 nM.

Take `N#Cc1ccc(-c2cccc(CN3C[C@H]4C[C@@H](N)C[C@@H]3C4)c2C2CC2)cc1F` (stereo in doubt) [Example 318, 3'-{[(1S,3R,5S)-3-amino-6-azabicyclo[3.2.1]octan-6-yl]methyl}-2'-cyclopropyl-3-fluoro-[1,1'-biphenyl]-4-carbonitrile]: the IC50 was in the range of 25 to 100 nM.

As for `Cn1cc2cc(-c3ccc(CC4CNCCO4)cc3-c3ccc(C#N)c(F)c3)ccc2n1` (centres unmarked) [Compound 58], the IC50 fell in the range of 100 to 1000 nM.

Consider `Cc1cc(CN2CCC3(CCN3C)C2)c(Cl)c(-c2ccc(C#N)c(F)c2)c1` (centres unmarked) [Compound 240], for which the IC50 was in the range of 25 to 100 nM.

Turning to `N#Cc1ccc(-c2cccc(CC3CNCCO3)c2-c2ccns2)cc1` (centres unmarked) [Example 1, 3′-[(morpholin-2-yl)methyl]-2′-(1,2-thiazol-5-yl)-[1,1′-biphenyl]-4-carbonitrile], the IC50 was 10 to 25 nM.

Consider `N#Cc1ccc(-c2cccc(C[C@@H]3CNCCO3)c2-c2ocnc2F)cc1` [Example 3, 2′-(4-fluoro-1,3-oxazol-5-yl)-3′-{[(2R)-orpholin-2-yl]methyl}-[1,1′-biphenyl]-4-carbonitrile], for which the IC50 was 10 to 25 nM.

As for `N#Cc1ccc(-c2cccc(C[C@H]3CNCCO3)c2-c2ccns2)cc1F` [Example 4, 3-fluoro-3′-{[(2S)-morpholin-2-yl]methyl}-2′-(1,2-thiazol-5-yl)-[1,1′-biphenyl]-4-carbonitrile], the half-maximal inhibitory concentration (IC50) is less than 10 nM.

Take `N#Cc1ccc(-c2cccc(CC3CNCCO3)c2C2=CCOC2)cc1F` (centres unmarked) [Example 10, 2′-(2,5-dihydrofuran-3-yl)-3-fluoro-3′-[(morpholin-2-yl)methyl]-[1,1′-biphenyl]-4-carbonitrile]: the IC50 lay in the range of 10 to 25 nM.

In the case of `N#Cc1ccc(-c2cccc(CC3CNCCO3)c2-c2ccno2)cc1` (centres unmarked) [Example 12, 3′-[(morpholin-2-yl)methyl]-2′-(1,2-oxazol-5-yl)-[1,1′-biphenyl]-4-carbonitrile], the IC50 fell in the range of 10 to 25 nM.

As for `N#Cc1ccc(-c2cccc(C[C@H]3CNCCO3)c2-c2ocnc2F)cc1F` [Example 15, 3-fluoro-2′-(4-fluoro-1,3-oxazol-5-yl)-3′-{[(2S)-morpholin-2-yl]methyl}-[1,1′-biphenyl]-4-carbonitrile], the half-inhibitory concentration (IC50) was less than 10 nM.

With `N#Cc1ccc(-c2cccc(CC3CNCCO3)c2-c2ccno2)cc1F` (centres unmarked) [Example 16, 3-fluoro-3′-[(morpholin-2-yl)methyl]-2′-(1,2-oxazol-5-yl)-[1,1′-biphenyl]-4-carbonitrile], the IC50 was 10 to 25 nM.

With `N#Cc1ccc(-c2cc(F)cc(CC3CNCCO3)c2-c2ccns2)cc1F` (centres unmarked) [Example 18, 3,5′-difluoro-3′-[(morpholin-2-yl)methyl]-2′-(1,2-thiazol-5-yl)-[1,1′-biphenyl]-4-carbonitrile], the IC50 lay in the range of 10 to 25 nM.

For `N#Cc1ccc(-c2cc(F)cc(CC3CNCCO3)c2-c2cncs2)cc1F` (centres unmarked) [Example 19, 3,5′-difluoro-3′-[(morpholin-2-yl)methyl]-2′-(1,3-thiazol-5-yl)-[1,1′-biphenyl]-4-carbonitrile], the IC50 was 10 to 25 nM.

For `N#Cc1ccc(-c2cccc(CC3CNCCCO3)c2-c2ccns2)cc1F` (centres unmarked) [Example 20, 3-fluoro-3′-[(1,4-oxazepan-2-yl)methyl]-2′-(1,2-thiazol-5-yl)-[1,1′-biphenyl]-4-carbonitrile], the IC50 is less than 10 nM.

As to `N#Cc1ccc(-c2cccc(CC3CNCCO3)c2N2CCC2)cc1F` (centres unmarked) [Example 21, 2′-(azetidin-1-yl)-3-fluoro-3′-[(morpholin-2-yl)methyl]-[1,1′-biphenyl]-4-carbonitrile], the IC50 lay within 100 to 1000 nM.

`Cc1ncsc1-c1c(CC2CNCCO2)cccc1-c1ccc(C#N)c(F)c1` (centres unmarked) [Example 24, 3-fluoro-2′-(4-methyl-1,3-thiazol-5-yl)-3′-[(morpholin-2-yl)methyl]-[1,1′-biphenyl]-4-carbonitrile]: the IC50 is 10 to 25 nM.

Regarding `N#Cc1ccc(-c2ccc(F)c(CC3CNCCO3)c2-c2cncs2)cc1F` (centres unmarked) [Example 25, 3,4′-difluoro-3′-[(morpholin-2-yl)methyl]-2′-(1,3-thiazol-5-yl)-[1,1′-biphenyl]-4-carbonitrile], the IC50 lay within 10 to 25 nM.

With `N#Cc1ccc(-c2cccc(CC3CNCCO3)c2-c2cnco2)cc1` (centres unmarked) [Example 27, 3′-[(morpholin-2-yl)methyl]-2′-(1,3-oxazol-5-yl)-[1,1′-biphenyl]-4-carbonitrile], the IC50 lay within 25 to 100 nM.

Turning to `N#Cc1ccc(-c2cccc(C[C@@H]3CNCCO3)c2-c2ccns2)cc1F` [Example 28, 3-fluoro-3′-{[(2R)-morpholin-2-yl]methyl}-2′-(1,2-thiazol-5-yl)-[1,1′-biphenyl]-4-carbonitrile], the IC50 is less than 10 nM.

Consider `N#Cc1ccc(-c2cccc(CC3CNCCO3)c2-c2ocnc2F)cc1F` (centres unmarked) [Example 29, 3-fluoro-2′-(4-fluoro-1,3-oxazol-5-yl)-3′-[(morpholin-2-yl)methyl]-[1,1′-biphenyl]-4-carbonitrile], for which the IC50 was in the range of 10 to 25 nM.

With `N#Cc1ccc(-c2cccc(CC3CNCCO3)c2-c2cccnc2)cc1F` (centres unmarked) [Example 32, 3-fluoro-3′-[(morpholin-2-yl)methyl]-2′-(pyridin-3-yl)-[1,1′-biphenyl]-4-carbonitrile], the IC50 was 25 to 100 nM.

With `CCC1(O)CCN(c2ccc(CC3CNCCO3)cc2-c2ccc(C#N)c(F)c2)CC1` (centres unmarked) [Example 33, 2′-(4-ethyl-4-hydroxypiperidin-1-yl)-3-fluoro-5′-[(morpholin-2-yl)methyl]-[1,1′-biphenyl]-4-carbonitrile], the concentration for half-maximal inhibition (IC50) fell in the range of 25 to 100 nM.

As to `N#Cc1ccc(-c2cccc(CC3CNCCO3)c2-c2cncs2)cc1` (centres unmarked) [Example 34, 3′-[(morpholin-2-yl)methyl]-2′-(1,3-thiazol-5-yl)-[1,1′-biphenyl]-4-carbonitrile], the IC50 lay within 10 to 25 nM.

The values above are taken from US20260209214A1, “LSD1 MODULATORS” (RECURSION PHARMACEUTICALS, INC., priority 2022, published 2026).
